Here are results for 14 compounds from US8574563B2 (Bristol-Myers Squibb Company, priority 2006, dated 2013).

Read-outs that look alike come from different tables or passages of the source.

In this test the test system is HCV 1b-377-neo replicon cells. Briefly: HCV replicon assay, HCV 1b-377-neo replicon cells (1b FRET). The test is classed as cell-based, Hepatitis C virus genotype 1b. The conditions noted are these: HCV 1b-377-neo replicon cells, HCV 1b genotype, read-out: EC50 range against HCV 1b (Table 2, Range). The procedure, abridged: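 Compounds tested in HCV genotype 1b-377-neo replicon cells with a FRET read-out. Cells resistant to a reference NS5A inhibitor through a Y2065H NS5A mutation were run alongside wild-type cells.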

Usually EC50 stands for the concentration needed to bring the measured effect to its halfway point. `CN(C)C(C(=O)N1CCC[C@H]1c1ncc(-c2ccc(-c3ccc(-c4cnc([C@@H]5CCCN5C(=O)[C@@H](c5ccccc5)N(C)C)[nH]4)cc3)cc2)[nH]1)c1cccnc1` (stereo partly drawn) [Example 94-45, 2-((2S)-2-(5-(4′-(2-((2S)-1-((2R)-2-(dimethylamino)-2-phenylacetyl)-2-pyrrolidinyl)-1H-imidazol-5-yl)-4-biphenylyl)-1H-imidazol-2-yl)-1-pyrrolidinyl)-N,N-dimethyl-2-oxo-1-(3-pyridinyl)ethanamine]: under “Hepatitis C virus”, the EC50 fell in the range of 1 to 999 pM.
Still for that read-out and setting: to `CN(C)C(C(=O)N1CCC[C@H]1c1ncc(-c2ccc(-c3ccc(-c4cnc([C@@H]5CCCN5C(=O)[C@@H](c5ccccc5)N(C)C)[nH]4)cc3)cc2)[nH]1)c1ccccn1` (stereo partly drawn) [Example 94-46, 2-((2S)-2-(5-(4′-(2-((2S)-1-((2R)-2-(dimethylamino)-2-phenylacetyl)-2-pyrrolidinyl)-1H-imidazol-5-yl)-4-biphenylyl)-1H-imidazol-2-yl)-1-pyrrolidinyl)-N,N-dimethyl-2-oxo-1-(2-pyridinyl)ethanamine] belongs 1 to 999 pM; to `CN(C)[C@@H](C(=O)N1CCC[C@H]1c1ncc(-c2ccc(-c3ccc(-c4cnc([C@@H]5CCCN5C(=O)Cc5cccs5)[nH]4)cc3)cc2)[nH]1)c1ccccc1` [Example 94-47, (1R)-N,N-dimethyl-2-oxo-1-phenyl-2-((2S)-2-(5-(4′-(2-((2S)-1-(2-thienylacetyl)-2-pyrrolidinyl)-1H-imidazol-5-yl)-4-biphenylyl)-1H-imidazol-2-yl)-1-pyrrolidinyl)ethanamine], 1 to 999 pM.
On the same count and under the same terms, with `CN(C)[C@@H](C(=O)N1CCC[C@H]1c1ncc(-c2ccc(-c3ccc(-c4cnc([C@@H]5CCCN5C(=O)Cc5ccsc5)[nH]4)cc3)cc2)[nH]1)c1ccccc1` [Example 94-48, (1R)-N,N-dimethyl-2-oxo-1-phenyl-2-((2S)-2-(5-(4′-(2-((2S)-1-(3-thienylacetyl)-2-pyrrolidinyl)-1H-imidazol-5-yl)-4-biphenylyl)-1H-imidazol-2-yl)-1-pyrrolidinyl)ethanamine] the figure was 1 to 999 pM; with `CN(C)[C@@H](C(=O)N1CCC[C@H]1c1ncc(-c2ccc(-c3ccc(-c4cnc([C@@H]5CCCN5C(=O)Cc5cccc6ccccc56)[nH]4)cc3)cc2)[nH]1)c1ccccc1` [Example 94-49, (1R)-N,N-dimethyl-2-((2S)-2-(5-(4′-(2-((2S)-1-(1-naphthylacetyl)-2-pyrrolidinyl)-1H-imidazol-5-yl)-4-biphenylyl)-1H-imidazol-2-yl)-1-pyrrolidinyl)-2-oxo-1-phenylethanamine], 1 to 999 pM.
Same read-out and setting: to `CN(C)[C@@H](C(=O)N1CCC[C@H]1c1ncc(-c2ccc(-c3ccc(-c4cnc([C@@H]5CCCN5C(=O)Cc5cnc[nH]5)[nH]4)cc3)cc2)[nH]1)c1ccccc1` [Example 94-50, (1R)-2-((2S)-2-(5-(4′-(2-((2S)-1-(1H-imidazol-5-ylacetyl)-2-pyrrolidinyl)-1H-imidazol-5-yl)-4-biphenylyl)-1H-imidazol-2-yl)-1-pyrrolidinyl)-N,N-dimethyl-2-oxo-1-phenylethanamine] belongs 1 to 999 pM.
For `CN(C)[C@@H](C(=O)N1CCC[C@H]1c1ncc(-c2ccc(-c3ccc(-c4cnc([C@@H]5CCCN5C(=O)Cc5ccccc5F)[nH]4)cc3)cc2)[nH]1)c1ccccc1` [Example 94-51, (1R)-2-((2S)-2-(5-(4′-(2-((2S)-1-((2-fluorophenyl)acetyl)-2-pyrrolidinyl)-1H-imidazol-5-yl)-4-biphenylyl)-1H-imidazol-2-yl)-1-pyrrolidinyl)-N,N-dimethyl-2-oxo-1-phenylethanamine], where the note is “Hepatitis C virus”, the EC50 lay in the range of 1 to 999 pM.
Take `CN(C)[C@@H](C(=O)N1CCC[C@H]1c1ncc(-c2ccc(-c3ccc(-c4cnc([C@@H]5CCCN5C(=O)Cc5cccc(F)c5)[nH]4)cc3)cc2)[nH]1)c1ccccc1` [Example 94-52, (1R)-2-((2S)-2-(5-(4′-(2-((2S)-1-((3-fluorophenyl)acetyl)-2-pyrrolidinyl)-1H-imidazol-5-yl)-4-biphenylyl)-1H-imidazol-2-yl)-1-pyrrolidinyl)-N,N-dimethyl-2-oxo-1-phenylethanamine]: the EC50 (Hepatitis C virus) was 1 to 999 pM.
`CN(C)[C@@H](C(=O)N1CCC[C@H]1c1ncc(-c2ccc(-c3ccc(-c4cnc([C@@H]5CCCN5C(=O)Cc5ccc(F)cc5)[nH]4)cc3)cc2)[nH]1)c1ccccc1` [Example 94-53, (1R)-2-((2S)-2-(5-(4′-(2-((2S)-1-((4-fluorophenyl)acetyl)-2-pyrrolidinyl)-1H-imidazol-5-yl)-4-biphenylyl)-1H-imidazol-2-yl)-1-pyrrolidinyl)-N,N-dimethyl-2-oxo-1-phenylethanamine]: the concentration giving a half-maximal response (EC50) (Hepatitis C virus) is 1 to 999 pM.
With `CN(C)C(C(=O)N1CCCC1c1nc(-c2ccc(-c3ccc(-c4cnc(C5CCCN5C(=O)Cc5csc6ccccc56)[nH]4)cc3)cc2)c[nH]1)c1ccccc1` [Example 94-54, (1R)-2-((2S)-2-(5-(4′-(2-((2S)-1-(1-benzothiophen-3-ylacetyl)-2-pyrrolidinyl)-1H-imidazol-5-yl)-4-biphenylyl)-1H-imidazol-2-yl)-1-pyrrolidinyl)-N,N-dimethyl-2-oxo-1-phenylethanamine], the EC50 is 1 to 999 pM.
Take `CN(C)[C@@H](C(=O)N1CCC[C@H]1c1ncc(-c2ccc(-c3ccc(-c4cnc([C@@H]5CCCN5C(=O)Cc5noc6ccccc56)[nH]4)cc3)cc2)[nH]1)c1ccccc1` [Example 94-55, (1R)-2-((2S)-2-(5-(4′-(2-((2S)-1-(1,2-benzisoxazol-3-ylacetyl)-2-pyrrolidinyl)-1H-imidazol-5-yl)-4-biphenylyl)-1H-imidazol-2-yl)-1-pyrrolidinyl)-N,N-dimethyl-2-oxo-1-phenylethanamine]: where the note is “Hepatitis C virus”, the EC50 was 1 to 999 pM.
Same read-out and setting: to `CN(C)[C@@H](C(=O)N1CCC[C@H]1c1ncc(-c2ccc(-c3ccc(-c4cnc([C@@H]5CCCN5C(=O)Cc5c[nH]c6ccccc56)[nH]4)cc3)cc2)[nH]1)c1ccccc1` [Example 94-56, (1R)-2-((2S)-2-(5-(4′-(2-((2S)-1-(1H-indol-3-ylacetyl)-2-pyrrolidinyl)-1H-imidazol-5-yl)-4-biphenylyl)-1H-imidazol-2-yl)-1-pyrrolidinyl)-N,N-dimethyl-2-oxo-1-phenylethanamine] belongs 1 to 999 pM; to `O=C([C@@H]1CCCO1)N1CCC[C@H]1c1ncc(-c2ccc(-c3ccc(-c4cnc([C@@H]5CCCN5C(=O)[C@@H](c5ccccc5)N5CCCC5)[nH]4)cc3)cc2)[nH]1` [Example 95, 2-((2S)-1-((2R)-2-phenyl-2-(1-pyrrolidinyl)acetyl)-2-pyrrolidinyl)-5-(4′-(2-((2S)-1-((2S)-tetrahydro-2-furanylcarbonyl)-2-pyrrolidinyl)-1H-imidazol-5-yl)-4-biphenylyl)-1H-imidazole], 1 to 999 pM.
Take `O=C([C@@H](c1ccccc1)N1CCCC1)N1CCC[C@H]1c1ncc(-c2ccc(-c3ccc(-c4cnc([C@@H]5CCCN5C(=O)[C@@H](c5ccccc5)N5CCOCC5)[nH]4)cc3)cc2)[nH]1` [Example 96, 4-((1R)-2-oxo-1-phenyl-2-((2S)-2-(5-(4′-(2-((2S)-1-((2R)-2-phenyl-2-(pyrrolidinyl)acetyl)-2-pyrrolidinyl)-1H-imidazol-5-yl)-4-biphenylyl)-1H-imidazol-2-yl)-1-pyrrolidinyl)ethyl)morpholine]: the half-maximal effective concentration (EC50) is 1 to 999 pM.
